Assay results as given in US20150307938A1, “METHOD TO IDENTIFY A NOVEL CLASS OF IMMUNOLOGIC ADJUVANTS” (Lancell, L.L.C., priority 2011, published 2015).
Counter-ions that a name gives are not always drawn.

Assays:
[1] = system: skin; test: Affymetrix microarray of skin, DBP-4 hr and analogs vs. untreated; gene selection by log-2 fold change, Wilcoxon, Kendall tau (Tables 8, 9); type: in vivo, mouse
[2] = system: Fluzone; set-up: species or system C57BL/6 mice; conditions: mouse, in vivo
[3] = system: Murine Skin Dendritic Cells; test: Activation of murine skin dendritic cells by DBP vs. DBlT (DC per lymph node, CD86); type: in vivo; conditions: topical treatment

## CCOC(=O)c1ccccc1C(=O)OCC [DEP, diethylphthalate]
[1]; gene #1 of Table 8
  Log2 Expression Level: 5.52
[1]; gene #2 of Table 8
  Log2 Expression Level: 7.18
[1]; gene #3 of Table 8
  Log2 Expression Level: 8.98
[1]; gene #4 of Table 8
  Log2 Expression Level: 8.98
[1]; gene #5 of Table 8
  Log2 Expression Level: 6.10
[1]; gene #6 of Table 8
  Log2 Expression Level: 7.14
[1]; gene #7 of Table 8
  Log2 Expression Level: 6.55
[1]; gene #8 of Table 8
  Log2 Expression Level: 7.14
[1]; gene #9 of Table 8
  Log2 Expression Level: 7.14
[1]; gene #10 of Table 8
  Log2 Expression Level: 7.14
[1]; gene #11 of Table 8
  Log2 Expression Level: 6.55
[1]; gene #12 of Table 8
  Log2 Expression Level: 6.55
[1]; gene #13 of Table 8
  Log2 Expression Level: 6.55
[1]; gene #14 of Table 8
  Log2 Expression Level: 4.71
[1]; gene #15 of Table 8
  Log2 Expression Level: 4.71
[1]; gene #16 of Table 8
  Log2 Expression Level: 7.54
[1]; gene #17 of Table 8
  Log2 Expression Level: 9.32
[1]; gene #18 of Table 8
  Log2 Expression Level: 9.32
[1]; gene #19 of Table 8
  Log2 Expression Level: 8.41
[1]; gene #20 of Table 8
  Log2 Expression Level: 8.85
[1]; gene #21 of Table 8
  Log2 Expression Level: 8.77
[1]; gene #22 of Table 8
  Log2 Expression Level: 5.30
[1]; gene #23 of Table 8
  Log2 Expression Level: 6.03
[1]; gene #24 of Table 8
  Log2 Expression Level: 7.92
[1]; gene #25 of Table 8
  Log2 Expression Level: 7.92
[1]; gene #26 of Table 8
  Log2 Expression Level: 7.51
[1]; gene #27 of Table 8
  Log2 Expression Level: 7.51
[1]; gene #28 of Table 8
  Log2 Expression Level: 7.51
[1]; gene #29 of Table 8
  Log2 Expression Level: 5.79
[1]; gene #30 of Table 8
  Log2 Expression Level: 8.76
[1]; gene #31 of Table 8
  Log2 Expression Level: 8.76
[1]; gene #32 of Table 8
  Log2 Expression Level: 8.76
[1]; gene #33 of Table 8
  Log2 Expression Level: 5.34
[1]; gene #34 of Table 8
  Log2 Expression Level: 6.85
[1]; gene #35 of Table 8
  Log2 Expression Level: 6.85
[1]; gene #36 of Table 8
  Log2 Expression Level: 8.98
[1]; gene #37 of Table 8
  Log2 Expression Level: 8.98
[1]; gene #38 of Table 8
  Log2 Expression Level: 8.98
[1]; gene #39 of Table 8
  Log2 Expression Level: 7.28
[1]; gene #40 of Table 8
  Log2 Expression Level: 7.39
[1]; gene #41 of Table 8
  Log2 Expression Level: 7.54
[1]; gene #42 of Table 8
  Log2 Expression Level: 7.18
[1]; gene #43 of Table 8
  Log2 Expression Level: 7.18
[1]; gene #44 of Table 8
  Log2 Expression Level: 7.54
[1]; gene #45 of Table 8
  Log2 Expression Level: 7.18
[1]; gene #46 of Table 8
  Log2 Expression Level: 7.54
[1]; gene #47 of Table 8
  Log2 Expression Level: 8.45
[1]; gene #48 of Table 8
  Log2 Expression Level: 8.45
[1]; gene #49 of Table 8
  Log2 Expression Level: 8.45
[1]; gene #50 of Table 8
  Log2 Expression Level: 9.67
[1]; gene #51 of Table 8
  Log2 Expression Level: 7.95
[1]; gene #52 of Table 8
  Log2 Expression Level: 9.60
[1]; gene #53 of Table 8
  Log2 Expression Level: 8.70
[1]; gene #54 of Table 8
  Log2 Expression Level: 10.81
[1]; gene #55 of Table 8
  Log2 Expression Level: 6.30
[1]; gene #56 of Table 8
  Log2 Expression Level: 9.40
[1]; gene #57 of Table 8
  Log2 Expression Level: 8.76
[1]; gene #58 of Table 8
  Log2 Expression Level: 8.74
[1]; gene #59 of Table 8
  Log2 Expression Level: 7.93
[1]; gene #60 of Table 8
  Log2 Expression Level: 7.26
[1]; gene #61 of Table 8
  Log2 Expression Level: 12.58
[1]; gene #62 of Table 8
  Log2 Expression Level: 7.63
[1]; gene #63 of Table 8
  Log2 Expression Level: 10.52
[1]; gene #64 of Table 8
  Log2 Expression Level: 11.04
[1]; gene #65 of Table 8
  Log2 Expression Level: 6.97
[1]; gene #66 of Table 8
  Log2 Expression Level: 7.90
[1]; gene #67 of Table 8
  Log2 Expression Level: 4.52
[1]; gene #68 of Table 8
  Log2 Expression Level: 8.29
[1]; gene #69 of Table 8
  Log2 Expression Level: 5.13
[1]; gene #70 of Table 8
  Log2 Expression Level: 4.38
[1]; gene #71 of Table 8
  Log2 Expression Level: 7.95
[1]; gene #72 of Table 8
  Log2 Expression Level: 7.61
[1]; gene #73 of Table 8
  Log2 Expression Level: 6.09
[1]; gene #74 of Table 8
  Log2 Expression Level: 7.13
[1]; gene #75 of Table 8
  Log2 Expression Level: 8.41
[1]; gene #76 of Table 8
  Log2 Expression Level: 4.13
[1]; gene #77 of Table 8
  Log2 Expression Level: 9.75
[1]; gene #78 of Table 8
  Log2 Expression Level: 10.71
[1]; gene #79 of Table 8
  Log2 Expression Level: 6.51
[1]; gene #80 of Table 8
  Log2 Expression Level: 12.79
[1]; gene #81 of Table 8
  Log2 Expression Level: 5.69
[1]; gene #82 of Table 8
  Log2 Expression Level: 4.90
[1]; gene #83 of Table 8
  Log2 Expression Level: 7.87
[1]; gene #84 of Table 8
  Log2 Expression Level: 7.51
[1]; gene #85 of Table 8
  Log2 Expression Level: 4.61
[1]; gene #86 of Table 8
  Log2 Expression Level: 6.60
[1]; gene #87 of Table 8
  Log2 Expression Level: 7.01
[1]; gene #88 of Table 8
  Log2 Expression Level: 5.04
[1]; gene #89 of Table 8
  Log2 Expression Level: 5.15
[1]; gene #90 of Table 8
  Log2 Expression Level: 10.08
[1]; gene #91 of Table 8
  Log2 Expression Level: 6.27
[1]; gene #92 of Table 8
  Log2 Expression Level: 7.41
[1]; gene #93 of Table 8
  Log2 Expression Level: 8.87
[1]; gene #94 of Table 8
  Log2 Expression Level: 7.83
[1]; gene #95 of Table 8
  Log2 Expression Level: 5.79
[1]; gene #96 of Table 8
  Log2 Expression Level: 6.84
[1]; gene #97 of Table 8
  Log2 Expression Level: 5.27
[1]; gene #98 of Table 8
  Log2 Expression Level: 5.94
[1]; gene #99 of Table 8
  Log2 Expression Level: 9.42
[1]; gene #100 of Table 8
  Log2 Expression Level: 7.53

## CCCCOC(=O)[C@H](O)[C@@H](O)C(=O)OCCCC [DBlT, dibutyl L tartrate]
[2]
  HAI titer / adjuvant effect with the same dose of Fluzone: almost but not quite as good as DBT had
[3]
  MFI CD86: 634 (126)
